According to US11191811B2, “Osteocalcin as a treatment for frailty associated with aging” (THE TRUSTEES OF COLUMBIA UNIVERSITY IN THE CITY OF NEW YORK, priority 2014, dated 2021):
Entries after “also recorded” stand apart in the source; their conditions may differ.

Legend:
[1] = Circulating osteocalcin and insulin levels after osteocalcin delivery (ELISA); assay type: in vivo, mouse
Description: First, whether a single intraperitoneal injection of uncarboxylated mouse osteocalcin (osteocalcin) (100 ng/g of body weight) immediately before exercise would improve the exercise capacity of 3 month-old WT mice was tested.
To determine if osteocalcin has the same ability in older mice, 12 and 15 month-old mice that have low circulating osteocalcin levels were injected prior to running with 500 ng/g of body weight of osteocalcin in order to raise their circulating levels substantially. […] This was due to an increase in the phosphorylation of Akt, AMPK and HSL, as well as in glucose uptake, that occurred to a greater extent in oxidative muscles that express Gprc6a at the highest level, than in glycolytic muscles (FIG. 31C-F). Whether chronic delivery of osteocalcin through mini-pumps (90 ng/hour) for 28 days would increase muscle function in 9 month old mice that have the lowest circulating osteocalcin levels was also tested. […] This improved ability to perform exercise was caused in part by an increase in the expression in muscle of the fatty acid transporter Fatp1 and an activation of the Akt pathway (FIG. 31H-).
Serum osteocalcin, PINP, CTX, and insulin levels were measured using ELISA assays. Blood glucose level was measured using an Accu-Check glucometer. Urine 3-MHT was measured as previously described (Aranibar et al., 2011, Anal. Biochem. 410:84-91). […]

[2] = tested on: WT myotubes; assay: Gene expression (qPCR) in myotubes treated with Ocn; assay type: cell-based, mouse
Description: FIG. 28. Osteocalcin signaling in myofibers favors uptake and oxidation of fatty acids. (A-B) Acylcarnitine levels in muscles and plasma of Gprc6af/f and Gprc6aMck−/− mice, at rest and after a single bout of exercise (n=4-6 per group). (C) OCR in myofibers cultured in KHR buffer containing 3 mM oleic acid. (D) ATP accumulations in muscles of Gprc6af/f and Gprc6aMck−/− mice after a single bout of exercise (n=6 per group). (E) Western blot analysis of HSL phosphorylation (Ser563) in muscles of Gprc6af/f and Gprc6aMck−/− mice after a single bout of exercise. (F-G) Cd36, Fatp1 and Cpt1b expression in WT and Gprc6a−/− myotubes or WT myotubes treated with Ocn (10 ng/ml). (H) Fatp1 expression in muscles of Gprc6af/f; Gprc6aMck−/− and Ocn+/−; Gprc6aMck+/− mice, at rest and after a single bout of exercise (n=4-6 per group). (I) Western blot analysis of FATP1 in muscle of Gprc6af/f and Gprc6aMck−/− mice after exercise. (J) Cd36, Fatp1 and Cpt1b expression in muscles of Creb f/f and CrebMck−/− mice after a single bout of exercise. (K) Western blot analysis of CREB phosphorylation (Ser133) in muscles of Gprc6af/f and Gprc6aMck−/− mice after a single bout of exercise. (L) Performance during endurance exercise of 3 month-old Gprc6aMck+/−; CrebMck+/−, CrebMck+/− and control mice (n=8-13 per group).
Serum osteocalcin, PINP, CTX, and insulin levels were measured using ELISA assays. Blood glucose level was measured using an Accu-Check glucometer. Urine 3-MHT was measured as previously described (Aranibar et al., 2011, Anal. Biochem. 410:84-91). Determination of cAMP accumulation was performed using a commercial kit (R&D). For gene expression, 1 μg of total RNA was reverse transcribed into cDNA. qPCR analyses were performed using a SYBER green master mix (Applied Biosciences) and a CFX-Connect real time PCR (Bio-Rad). Relative expression levels of each gene were normalized to that of Hprt or Gapdh. For in situ hybridization, muscle was frozen in liquid N2-cooled methylbutane. Samples were sectioned at 10 μm using a cryostat. […]

[3] = tested on: wild-type mice; assay: Allergen-triggered asthma-like condition, osteocalcin delivery; assay type: in vivo, mouse
Description: The level of acetylcholine, a neurotransmitter that causes bronchoconstriction, is increased in the lungs but not in the brains of Osteocalcin^−/− and Gprc6a^−/− mice.
When metacholine is administered to the lungs of mice, the lung airways constrict. […] Wild-type mice were treated with an inflammation-increasing agent and developed asthma that included bronchoconstriction and signs of inflammation.

[4] = tested on: Osteocalcin−/− mice; assay: Bronchoconstriction of Osteocalcin−/− mice, intracerebroventricular infusion; assay type: in vivo, mouse; settings: intracerebroventricular infusions in Osteocalcin−/− mice
[5] = tested on: Leydig cells; assay: Testosterone production by testis explants or primary Leydig cells; assay type: cell-based, mouse; settings: recombinant uncarboxylated osteocalcin 0-100 ng/ml of culture medium (FIG. 10)
Description: FIG. 10. Osteocalcin favors male fertility by increasing testosterone production by Leydig cells. (A-B) Testosterone production by testis explants (A) or primary Leydig cells (B) cultured in the presence of supernatants of wild type (WT) or Osteocalcin^−/− osteoblast cultures. (C-D) Testosterone production by testis explants (C) or primary Leydig cells (D) following stimulation with increasing doses of recombinant uncarboxylated osteocalcin (0, 0.3, 1, 3, 10, 100 ng/ml of culture medium). (E) Circulating testosterone levels in WT mice 1 hour, 4 hours, and 8 hours after vehicle or recombinant uncarboxylated osteocalcin (3 ng/g of body weight) injection. (F-G) Comparison between the average litter size (F) and frequency (G) generated by WT, Osteocalcin^−/−, or Esp^−/− male littermate mice crossed with WT females (breeding was tested from 6 to 16 weeks of age). (H-L) Testis size (H), testis weight (I), epididymides weight (J), seminal vesicles weight (K), and sperm count (L) in Osteocalcin^−/− and Esp^−/− compared to WT littermate mice. (M) Circulating steroid sex hormone levels in Osteocalcin^−/− and Esp^−/− compared to WT littermate mice. The analyses were performed on breeder and non-breeder mice. Error bars represent SEM. Student's t test (*) P<0.05, (**) P<0.001.

[6] = tested on: muscle; assay: S6K phosphorylation and protein synthesis; settings: FIG. 23; for protein synthesis: in muscle
Source text: FIG. 23. Osteocalcin promotes S6K phosphorylation and protein synthesis.
It has been shown that in muscle osteocalcin favors glucose uptake, glycolysis, fatty acid oxidation, and protein synthesis.

[7] = delivery by nebulization (two weeks)

With “uncarboxylated osteocalcin: Recombinant uncarboxylated mouse osteocalcin, bacterially produced, purified on glutathione beads and cleaved from the GST subunit by thrombin (YLGASVPSPDPLEPTREQCELNPACDELSDQYGLKTAYKRIYGITI)” the circulating osteocalcin levels ([1]; 3 month-old WT mice, single i.p. injection 100 ng/g) was “increased”, the circulating osteocalcin levels ([1]; mini-pumps 90 ng/hour for 28 days, 9 month old mice) was “increased” and the “expression of Il6” value [2] was “increased”. The “expression of Cpt1b” value ([2]; Ocn 10 ng/ml) was “increased”, the “expression of Fatp1” value ([2]; Ocn 10 ng/ml) was “increased” and the bronchoconstriction [3, 7] was “completely rescued”. The “local inflammation / inflammatory signs” value [3, 7] was “without affecting; also recorded: still observed”, the bronchoconstriction ([3]; osteocalcin delivered to the brains) was “did not show a similar effect” and the bronchoconstriction [4] was “do not correct”. The “testosterone production by Leydig cells” value [5] was “increasing”, the S6K phosphorylation [6] was “promotes” and the protein synthesis ([6]; listed as Osteocalcin) was “promotes”. The protein synthesis ([6]; listed as osteocalcin) was “favors”.
